What was measured:
Assay in all cases: relative viability (nuclei count vs DMSO), 5 days (fraction); higher = more cells survive
Cediranib + Palbociclib = compound: COc1cc2c(Oc3ccc4[nH]c(C)cc4c3F)ncnc2cc1OCCCN1CCCC1 [Cediranib] + CC(=O)c1c(C)c2cnc(Nc3ccc(N4CCNCC4)cn3)nc2n(C2CCCC2)c1=O [Palbociclib] (partner 0.5 µM)
Summary of the method: (§1)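 Relative viability is defined as nuclei in treated wells over nuclei in vehicle wells. Duplicate plates were run and medians reported. Lung cancer cell lines in 1536-well plates were dosed by pin tool one day after seeding, with one drug or with a fixed anchor-drug dose plus five library-drug doses (not always all listed) in √10 steps, and nuclei were counted after 5 days.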

Cediranib + Decitabine = compound: COc1cc2c(Oc3ccc4[nH]c(C)cc4c3F)ncnc2cc1OCCCN1CCCC1 [Cediranib] + Nc1ncn([C@H]2C[C@H](O)[C@@H](CO)O2)c(=O)n1 [Decitabine] (partner 2 µM)
Summary of the method: as §1

Halofuginone + Olaparib = compound: O=C(C[C@H]1NCCC[C@@H]1O)Cn1cnc2cc(Br)c(Cl)cc2c1=O (racemic) [Halofuginone] + O=C(c1cc(Cc2n[nH]c(=O)c3ccccc23)ccc1F)N1CCN(C(=O)C2CC2)CC1 [Olaparib] (partner 8 µM)
Summary of the method: as §1

[1] = compound: O=C(C[C@H]1NCCC[C@@H]1O)Cn1cnc2cc(Br)c(Cl)cc2c1=O (racemic) [Halofuginone] + N=C(N)NC(=N)NCCc1ccccc1 [Phenformin] (partner 250 µM)
Summary of the method: as §1

| Cell Line | relative viability (Cediranib + Palbociclib; first compound 0.04 µM) | relative viability (Cediranib + Palbociclib; first compound 0.1265 µM) | relative viability (Cediranib + Palbociclib; first compound 0.4 µM) | relative viability (Cediranib + Palbociclib; first compound 1.265 µM) | relative viability (Cediranib + Palbociclib; first compound 4 µM) | relative viability (Cediranib + Decitabine; first compound 0.04 µM) | relative viability (Cediranib + Decitabine; first compound 0.1265 µM) | relative viability (Cediranib + Decitabine; first compound 0.4 µM) | relative viability (Cediranib + Decitabine; first compound 1.265 µM) | relative viability (Cediranib + Decitabine; first compound 4 µM) | relative viability (Halofuginone + Olaparib; first compound 0.001 µM) | relative viability (Halofuginone + Olaparib; first compound 0.003162 µM) | relative viability (Halofuginone + Olaparib; first compound 0.01 µM) | relative viability (Halofuginone + Olaparib; first compound 0.03162 µM) | relative viability (Halofuginone + Olaparib; first compound 0.1 µM) | relative viability ([1]; first compound 0.001 µM) | relative viability ([1]; first compound 0.003162 µM) | relative viability ([1]; first compound 0.01 µM) | relative viability ([1]; first compound 0.03162 µM) | relative viability ([1]; first compound 0.1 µM) |
| --- | --- | --- | --- | --- | --- | --- | --- | --- | --- | --- | --- | --- | --- | --- | --- | --- | --- | --- | --- | --- |
| 201T | 0.368 | 0.429 | 0.352 | 0.372 | 0.341 | 0.876 | 0.89 | 0.889 | 0.868 | 0.878 | 0.851 | 0.906 | 0.853 | 0.827 | 0.83 | 0.459 | 0.472 | 0.442 | 0.457 | 0.348 |
| A549 |  |  |  |  |  | 0.449 | 0.115 | 0.272 | 0.258 | 0.319 | 0.48 | 0.413 | 0.378 | 0.288 | 0.262 | 0.186 | 0.215 | 0.148 | 0.163 | 0.109 |
| A-427 | 0.524 |  | 0.481 | 0.458 | 0.502 | 0.566 |  | 0.537 | 0.537 | 0.66 | 0.826 | 0.695 | 0.77 | 0.704 | 0.597 | 0.304 | 0.346 | 0.326 | 0.293 | 0.272 |
| ABC-1 | 0.766 | 1.04 | 0.538 | 0.853 | 0.426 | 0.866 | 1.11 | 1.19 | 1.05 | 1.04 | 1.06 | 0.793 | 0.617 | 0.847 | 1.09 | 0.27 | 0.223 | 0.24 | 0.234 | 0.209 |
| BEN | 0.437 | 0.412 | 0.489 | 0.451 | 0.47 | 0.732 | 0.431 | 0.74 | 0.509 | 0.722 | 1.06 | 1 | 1.12 | 1.02 | 0.626 | 0.263 | 0.263 | 0.26 | 0.285 | 0.237 |
| CAL-12T | 0.535 | 0.408 | 0.411 | 0.466 | 0.666 |  |  |  |  |  | 0.785 | 0.717 | 0.709 | 0.754 | 0.548 | 0.582 | 0.592 | 0.555 | 0.603 | 0.509 |
| COR-L23 | 0.282 | 0.349 | 0.279 | 0.353 | 0.263 | 0.528 | 0.44 | 0.402 | 0.332 | 0.484 | 0.349 | 0.348 | 0.346 | 0.292 | 0.171 | 0.489 | 0.431 | 0.482 | 0.415 | 0.303 |
| COR-L 105 | 0.413 | 0.405 | 0.426 | 0.394 | 0.414 | 0.65 | 0.676 | 0.629 | 0.601 | 0.729 | 0.695 | 0.607 | 0.698 | 0.664 | 0.625 | 0.492 | 0.467 | 0.488 | 0.516 | 0.381 |
| Calu-6 |  |  |  |  |  |  |  |  |  |  | 0.611 |  | 0.584 | 0.327 | 0.135 |  |  |  |  |  |
| ChaGo-K-1 | 0.979 | 0.922 | 0.961 | 0.996 | 0.986 | 0.51 | 0.376 | 0.506 | 0.57 | 0.784 | 0.397 | 0.452 | 0.407 | 0.398 | 0.442 | 0.473 | 0.486 | 0.573 | 0.392 | 0.462 |
| EBC-1 |  |  |  |  |  |  |  |  |  |  | 0.752 | 0.706 | 0.532 | 0.303 | 0.169 |  |  |  |  |  |
| EKVX | 0.394 | 0.386 | 0.326 |  | 0.316 | 0.332 | 0.342 | 0.341 |  | 0.392 | 0.861 | 0.849 | 0.789 | 0.843 | 0.645 | 0.236 | 0.241 | 0.232 | 0.226 | 0.199 |
| EMC-BAC-2 | 0.519 | 0.562 | 0.529 | 0.51 | 0.499 | 0.953 |  | 0.989 | 0.918 | 1.04 | 0.538 | 0.486 | 0.471 | 0.476 | 0.299 | 0.615 | 0.546 | 0.503 | 0.521 | 0.338 |
| EPLC-272H | 0.297 |  | 0.312 | 0.327 | 0.318 | 0.352 |  | 0.338 | 0.406 | 0.354 | 1.09 | 0.775 | 0.583 | 0.764 | 0.445 | 0.314 | 0.267 | 0.311 | 0.312 | 0.286 |
| H3255 | 0.322 | 0.322 | 0.316 | 0.308 | 0.334 | 0.534 |  | 0.601 |  | 0.487 | 0.622 | 0.563 | 0.522 | 0.514 | 0.544 | 0.399 | 0.372 | 0.293 | 0.401 | 0.369 |
| HARA | 0.249 | 0.32 | 0.298 | 0.301 | 0.211 | 0.595 | 0.593 | 0.517 | 0.782 | 0.582 | 1.16 | 0.885 | 0.572 | 0.664 | 0.345 | 0.486 | 0.465 | 0.487 | 0.48 | 0.363 |
| HCC-15 | 0.69 |  | 0.681 | 0.751 | 0.678 | 0.645 | 0.433 | 0.575 | 0.688 | 0.644 | 0.765 | 0.82 | 0.727 | 0.678 | 0.665 | 0.471 | 0.534 | 0.46 | 0.467 | 0.429 |
| HCC-44 | 0.983 | 0.917 | 0.974 | 0.947 | 1.01 | 0.932 | 0.629 | 0.93 | 0.934 | 0.958 | 0.97 | 1.03 | 0.987 | 0.962 | 0.942 | 0.23 | 0.222 | 0.196 | 0.178 | 0.13 |

Source: the supplement of paper PMC10307832
